Measurements published in patent publication US4558127A, “5-Fluorouracil nitroxyl derivatives possessing antitumor activity” (priority 1984, dated 1985).

Columns and labels:
leukemia La = test: Antitumor activity on grafted leukemia La in mice (ELS, kinetic criterion, chemotherapeutic index); format: in vivo, mouse; conditions: for ELS (extension of average life span) / kinetic criterion (.chi.) = 1-.phi.t/.phi.c / Chemotherapeutic index I40 = LD10/ED40: La, C57Bl mice; for Chemotherapeutic index I40 = LD10/ED40: i/p
Text: (§1) For the determination of antitumor activity these compounds (I, II, III, IV), 5-fluorouracyl and Ftorafur were used in the same solvents as in the determination of toxicity.
(§2) The determination of antitumor activity was effected on grafted tumors of mice: leukemia L-1210, leukemia P-388, Leukemia La, melanoma B-16, adenocarcinoma 755 (Ca-755), as well as on grafted tumors of rats: Schwetz erythroleukosis, Walker carcinosarcoma (WCS), Geren carcinoma.
Leukemia La was grafted intraperitoneally using a suspension of leukemic cells in a physiological solution. The inoculum contained 10^8 of leukemia cells. […]
In the determination of the antitumor activity the test compounds were introduced in equitoxic doses.
The criterion of the antitumor activity for leukemia P-338, L-1210 and La is the extension of an average life span (ELS) of the test animals as compared to the control ones, expressed in percent and calculated by the formula: [formula] wherein Lt --life span of animals in the test group;
Lc --life span of animals in the control group, i.e. without administration of the test compounds.
The comparative assessment of the scope of therapeutic action is effected using chemotherapeutic indices I40, I60 and I100 : I40 =LD10 /ED40, I60 =LD10 /ED60 I100 =LD10 /ED100, where LD10 =dose causing death of 10% of the animals; ED40, ED60 and ED100 are effective doses causing extension of the animal's life span by 40, 60 and 100 percent respectively.

Schwetz erythroleukosis = test: Antitumor activity on grafted Schwetz erythroleukosis in rats; format: in vivo, rat; conditions: mongrel rats, single dose 25 mg/kg i/p, days 7-14
Text: as §1, §2
(§3) In the determination of the antitumor activity the test compounds were introduced in equitoxic doses. Ftorafur was also used in the optimal dose which is equal to […].
(§4) As the criterion of antitumor activity on solid tumors used is the inhibition (I) of the tumor volume gain in comparison with the control, expressed in percent and calculated by the formula: [formula] wherein Vc --average volume of the tumor in the control,
(§5) Vt --average volume of the tumor in the experiment.

melanoma B-16 = test: Antitumor activity on grafted melanoma B-16 in mice (inhibition of tumor volume gain); format: in vivo, mouse; conditions: for Inhibition of tumor volume gain: B-16, CBAF1 mice, days 1-10
Text: as §1, §2, §3, §4, §5

[1] = Toxicity (LD50), intraperitoneal administration, mongrel white mice, Burns method; format: in vivo, mouse; conditions: mice; for LD50: mouse, in vivo, ip, intraperitoneal, I, II, III as emulsion in 10% aqueous Tween-80, IV, Ftorafur, 5-fluorouracyl as aqueous solutions; for less toxic than 5-fluorouracyl, fold: relative to 5-fluorouracyl
Text: Toxicity of the compounds according to the present invention has been determined on mongrel white mice in experimental intraperitoneal administration of these compounds and evaluated by the Burns method (using curves of accumulation of the animal death frequencies vs. dose).
As the toxicity characteristic use was made of the dose causing death of 50% of the animals employed for the experiment (LD50).
For the determination of toxicity of (1,3-bis-(2,2,5,5-tetramethyl-1-oxyl-Δ^3 -pyrrolin-3-oyl)-5-fluorouracyl(compound I), 1-(2,2,5,5-tetramethyl-1-oxyl-Δ^3 -pyrrolin-3-oyl)-5-fluorouracyl (compound II) and 3-(2,2,5,5-tetramethyl-1-oxyl-Δ^3 -pyrrolin-3-oyl)-5-fluorouracyl (compound III), these compounds were administered intraperitoneally in the form of an emulsion in a 10% aqueous solution of polyoxyethylsorbitan monooleate (Tween-80, Ferak Berlin West Germany).
For the determination of toxicity of sodium salt of 3-(2,2,5,5-tetramethyl-1-oxyl-Δ^3 -pyrrolin-3-oyl)-5-fluorouracyl (compound IV), Ftorafur and 5-fluorouracyl, these compounds were also administered intraperitoneally in the form of aqueous solutions.

[2] = background art; cited from earlier work
Solubility = format: physicochemical; conditions: for solubility in organic solvents: alcohols, acetone, acetonitrile, dimethylformamide, dimethylsulphoxide; for solubility in aqueous alkalis or buffer solutions: pH above 10
[3] = Stability against hydrolysis; format: physicochemical
[4] = single dose 75 mg/kg i/p, days 1-7 after grafting
[5] = single dose 75 mg/kg i/p, days 1-7 after grafting, control life span 6,5 days
[6] = leukemia La, relative to Ftorafur

| Structure (SMILES) | LD50 [1] [mg/kg] | Chemotherapeutic index I40 = LD10/ED40 (leukemia La; days 1-7) | kinetic criterion (.chi.) = 1-.phi.t/.phi.c (leukemia La; [4]) | ELS (extension of average life span) (leukemia La; [5]) [%] | kinetic criterion compared with Ftorafur, in words (leukemia La; leukemia La) | therapeutic effect compared with 5-fluorouracyl, in words (leukemia La; leukemia La) | effectiveness relative to Ftorafur as regards ELS, fold (leukemia La; [6]) [times] | less toxic than 5-fluorouracyl, fold ([1]; i/p) [times] | solubility in organic solvents (Solubility) | solubility in water (Solubility) | solubility in aqueous alkalis or buffer solutions (Solubility) | also measured |
| --- | --- | --- | --- | --- | --- | --- | --- | --- | --- | --- | --- | --- |
| O=c1[nH]cc(F)c(=O)[nH]1 [5-fluorouracyl, reference compound] | 100 | – | – | – | – | – | – | – | – | – | – | ELS (extension of average life span) (leukemia La; single dose 25 mg/kg i/p, days 1-7, control life span 6.5 days): 57%; kinetic criterion (.chi.) = 1-.phi.t/.phi.c (leukemia La; single dose 35 mg/kg i/p, days 1,3,5,7): 0.67; ELS (extension of average life span) (leukemia La; single dose 35 mg/kg i/p, days 1,3,5,7, control life span 6,5 days): 57%; Chemotherapeutic index I60 = LD10/ED60 (leukemia La; mouse, in vivo, ip): 3.6; Inhibition of tumor volume gain (Schwetz erythroleukosis): 15%; Inhibition of tumor volume gain (melanoma B-16; single dose 25 mg/kg i/p): 0%; activity on melanoma B-16, in words (melanoma B-16; mouse, in vivo): shows no activity; toxicity / side effects in words [2]: highly toxic, it strongly affects the function of bone marrow and gastro-intestinal tract |
| CC1(C)C=C(C(=O)n2cc(F)c(=O)n(C(=O)C3=CC(C)(C)N([O])C3(C)C)c2=O)C(C)(C)N1[O] [I, 1,3-bis-(2,2,5,5-tetramethyl-1-oxyl-Δ^3-pyrrolin-3-oyl)-5-fluorouracyl] | 350 | 4,0 | 0,1 | 30 | close values | close to 5-fluorouracyl | 2 | 3.5 | wellsoluble | sparingly soluble in water | – | Inhibition of tumor volume gain (melanoma B-16; single dose 75 mg/kg i/p): 15% |
| CC1(C)C=C(C(=O)n2cc(F)c(=O)[nH]c2=O)C(C)(C)N1[O] [II, 1-(2,2,5,5-tetramethyl-1-oxyl-Δ^3 pyrrolin-3-oyl)-5-fluorouracyl] | 150 | 2,0 | 0.5 | 45 | – | similar, in these characteristics, to 5-fluorouracyl | 3 | – | wellsoluble | sparingly soluble in water | well soluble | hydrolysis in aqueous solutions of alkalis ([3]; to fluorouracyl and 2,2,5,5-tetramethyl-1-oxyl-Δ^3 -pyrrolin-3-carboxylic acid, rate increases with increasing pH): rapidly hydrolyzed; effectiveness relative to Ftorafur as regards kinetic criterion, fold (leukemia La; [6]): 3 times; toxicity compared with 5-fluorouracyl, in words ([1]; i/p): substantially similar to that of 5-fluorouracyl |
| CC1(C)C=C(C(=O)n2c(=O)[nH]cc(F)c2=O)C(C)(C)N1[O] [III, 3-(2,2,5,5-tetramethyl-1-oxyl-Δ^3-pyrrolin-3-oyl)-5-fluororacyl] | 550 | 7,8 | – | – | close values | close to 5-fluorouracyl | 2 | 5 | wellsoluble | sparingly soluble in water | well soluble | stability against hydrolysis ([3]; room temperature, pH 3 to 11, about 5 hours): do not undergo any noticeable hydrolytical decomposition; kinetic criterion (.chi.) = 1-.phi.t/.phi.c (leukemia La; single dose 65 mg/kg i/p, days 1-7): 0,2; ELS (extension of average life span) (leukemia La; single dose 65 mg/kg i/p, days 1-7, control life span 6,5 days): 40%; toxicity compared with Ftorafur, in words ([1]; i/p): approach toxicity of Ftorafur |
